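Cells were grown in 96-well plates and exposed to each compound for 48 hours at five concentrations; endpoints were interpolated linearly between bracketing concentrations, or set to the highest concentration if not reached. At the GI50, growth is halved.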 Calls of active or inactive are those of the source. Rule as the data show it: active = GI50 up to about 1.1 µM and inactive = higher. Where only a bound is given, the exact number is not on record here.

13 molecules from ChEMBL document CHEMBL1201862, “PubChem BioAssay data set” (2004) can be followed below.

Some test systems named below: A549; CAKI-1; HCT-116; HL-60; HOP-92; HT-29; IGROV-1; NCI-H522; OVCAR-3; SF-268; SF-539; SK-OV-3; SNB-75; U-251; UACC-62; UO-31; M14; RXF 393.
What all share (assay): DTP human tumour cell line panel, 48 h

A word on the GI50: it is the concentration giving 50% growth inhibition. Take `N#CCCN(c1ccc(-c2nnc(NC(=O)CNNC(=O)CC(=O)Nc3ccccc3)s2)cc1)S(=O)(=O)c1ccccc1`: the GI50 with A549 is 88.1 µM (inactive); in the assay on CAKI-1, 78 µM (inactive); in the assay with HCT-116 it was 71.1 µM (inactive); in the assay on HL-60 it was 39.4 µM (inactive); in the assay on HOP-92, 79.6 µM (inactive); with HT-29, > 100 µM (inactive). In addition, the GI50 in the assay on IGROV-1 was > 100 µM (inactive); with NCI-H522 it was 42.1 µM (inactive); in the assay on OVCAR-3, 52.6 µM (inactive); in the assay on SF-268, > 100 µM (inactive); in the assay on SF-539 it was > 100 µM (inactive); in the assay on SK-OV-3 it was > 100 µM (inactive). Besides, the GI50 in the assay with SNB-75 was 29 µM (inactive); with U-251 it was > 100 µM (inactive); in the assay on UACC-62 it was 50.8 µM (inactive); in the assay with UO-31, 46.3 µM (inactive).
Consider `Cn1cnc([N+](=O)[O-])c1Sc1nnc(-c2ccc(Cl)cc2)n1C`, for which the GI50 was 48.9 µM (inactive) in the assay with A549; 15.9 µM (inactive) in the assay with CAKI-1; 13.1 µM (inactive) in the assay on HCT-116; 12.1 µM (inactive) with HOP-92; 15 µM (inactive) in the assay on HT-29; 16.7 µM (inactive) in the assay with IGROV-1. The GI50 with M14 is 13.6 µM (inactive); in the assay with NCI-H522, 3.17 µM (inactive); with OVCAR-3, 13.9 µM (inactive); in the assay on RXF 393 it was 3.15 µM (inactive); in the assay with SF-268 it was 20.3 µM (inactive); with SF-539, 16.2 µM (inactive). Moreover, the GI50 was 51.2 µM (inactive) in the assay with SK-OV-3; 17.7 µM (inactive) with SNB-75; 16.3 µM (inactive) in the assay on U-251; 15.5 µM (inactive) with UACC-62; 14.6 µM (inactive) in the assay with UO-31.
For the molecule `O=[N+]([O-])c1ccc(C(O)/C(=N/O)c2nc3ccc(Cl)cc3nc2O)cc1` (stereo unspecified), the GI50 in the assay on A549, in the assay with CAKI-1, in the assay with HCT-116, in the assay with HL-60, with HT-29 and in the assay on IGROV-1 was > 100 µM (inactive) throughout. In addition, the GI50 in the assay on M14, in the assay with RXF 393, in the assay on SF-268, with SF-539, in the assay with SK-OV-3 and in the assay on SNB-75 was > 100 µM (inactive) throughout. Further, the GI50 in the assay on U-251, in the assay with UACC-62 and in the assay with UO-31 was > 100 µM (inactive) in each case.
Take `CCSC(=O)C1(C)OC2CCCCC2C1=O` (stereo unspecified): the GI50 in the assay with A549, with CAKI-1, in the assay with HCT-116, in the assay on HL-60, in the assay on IGROV-1 and with M14 was > 100 µM (inactive) throughout. Further, the GI50 in the assay on NCI-H522, with RXF 393, in the assay on SF-268, in the assay on SF-539, in the assay on SK-OV-3 and with SNB-75 was > 100 µM (inactive) throughout. Besides, the GI50 in the assay with U-251, in the assay on UACC-62 and with UO-31 was > 100 µM (inactive) throughout.
Regarding `CCOP(=O)(C/C(=N/NC(C)(C)C)C(=O)Nc1nc2ccc(C)cc2s1)OCC`, the GI50 in the assay with A549, in the assay on CAKI-1, in the assay on HCT-116, in the assay on HL-60, in the assay with HT-29 and in the assay with IGROV-1 was > 100 µM (inactive) throughout. Moreover, the GI50 with M14, with NCI-H522, in the assay with OVCAR-3, with RXF 393, with SF-268 and with SF-539 was > 100 µM (inactive) each time. For the same molecule, the GI50 with SK-OV-3, in the assay with SNB-75, in the assay with U-251, in the assay with UACC-62 and in the assay with UO-31 was > 100 µM (inactive) in each case.
For the molecule `NC12CC3CC(C1)CC(C(=O)O)(C3)C2`, the GI50 in the assay on A549, in the assay with CAKI-1, in the assay on HCT-116, with HL-60, in the assay with HOP-92 and in the assay with HT-29 was > 100 µM (inactive) in each case. For the same molecule, the GI50 with IGROV-1, in the assay with M14, in the assay on NCI-H522, with OVCAR-3, in the assay on SF-268 and with SF-539 was > 100 µM (inactive) throughout. The GI50 in the assay on SK-OV-3, with SNB-75, in the assay with U-251, in the assay on UACC-62 and in the assay on UO-31 was > 100 µM (inactive) throughout.
For `Cc1ccc(C2(C)NC(=S)N(NC(N)=S)C2=S)cc1` (stereo unspecified), the GI50 with A549, in the assay with HCT-116, in the assay on HL-60, with IGROV-1, with M14 and in the assay with OVCAR-3 was > 100 µM (inactive) in each case. In addition, the GI50 in the assay on RXF 393 was 80.2 µM (inactive); with SF-268, > 100 µM (inactive); in the assay on SF-539 it was > 100 µM (inactive); in the assay on SNB-75, 25.3 µM (inactive); with U-251, > 100 µM (inactive); in the assay on UACC-62, 43.2 µM (inactive). For the same molecule, the GI50 in the assay on UO-31 is > 100 µM (inactive).
Regarding `O=C(Nc1cccc2c1C(=O)c1c(NC(=O)c3ccccc3)ccc(Nc3cccc4c3C(=O)c3ccccc3C4=O)c1C2=O)c1ccccc1`, the GI50 in the assay on A549, in the assay with CAKI-1, in the assay on HCT-116, in the assay with HL-60, in the assay with IGROV-1 and in the assay with M14 was > 100 µM (inactive) in each case. Moreover, the GI50 in the assay on NCI-H522 was > 100 µM (inactive); in the assay on OVCAR-3, > 100 µM (inactive); with RXF 393, 59.4 µM (inactive); in the assay on SF-268, > 100 µM (inactive); with SF-539, > 100 µM (inactive); in the assay with SK-OV-3, > 100 µM (inactive). Also, the GI50 is 70.3 µM (inactive) in the assay with SNB-75, > 100 µM (inactive) in the assay with U-251, > 100 µM (inactive) in the assay with UACC-62 and > 100 µM (inactive) in the assay with UO-31.
For `Cc1nc(-n2nc(-c3ccccc3)cc2-c2ccccc2)sc1C(=O)/C=C/c1ccc(/C=C/C(=O)c2sc(-n3nc(-c4ccccc4)cc3-c3ccccc3)nc2C)cc1`, the GI50 in the assay on A549 was 39 µM (inactive); in the assay with CAKI-1, 22.2 µM (inactive); with HCT-116, 19.8 µM (inactive); with HL-60 it was 32.9 µM (inactive); with HT-29, 21.6 µM (inactive); in the assay with IGROV-1 it was 15.2 µM (inactive). Besides, the GI50 was 20 µM (inactive) in the assay on M14; 17.8 µM (inactive) in the assay on NCI-H522; 20.8 µM (inactive) in the assay on OVCAR-3; 22.8 µM (inactive) in the assay on RXF 393; 23.2 µM (inactive) in the assay on SF-268; 19.2 µM (inactive) in the assay on SF-539. Besides, the GI50 in the assay on SK-OV-3 is > 100 µM (inactive); in the assay on U-251, 19 µM (inactive); in the assay on UACC-62, > 10 µM (inactive); with UO-31, 20.1 µM (inactive).
For the molecule `O=C1CC(c2c[nH]c3ccccc23)C(=O)N1c1ccccc1` (stereo unspecified), the GI50 with A549, with CAKI-1, in the assay on HCT-116, in the assay with HL-60, in the assay with HT-29 and in the assay with IGROV-1 was > 100 µM (inactive) each time. The GI50 with M14, in the assay with OVCAR-3, in the assay on RXF 393, in the assay with SF-539, with SK-OV-3 and in the assay with SNB-75 was > 100 µM (inactive) in each case. The figures for the GI50 in the assay on U-251, with UACC-62 and in the assay on UO-31 were > 100 µM (inactive), > 100 µM (inactive) and 83.6 µM (inactive), respectively.
In the case of `C=CCN1C2Cc3cc(OC)c(OC)cc3C1Cc1cc(OC)c(OC)cc12`, the GI50 with A549 was > 100 µM (inactive); in the assay on CAKI-1, > 100 µM (inactive); in the assay with HT-29 it was 69 µM (inactive); with M14, > 100 µM (inactive); in the assay with NCI-H522, > 100 µM (inactive); in the assay with OVCAR-3 it was > 100 µM (inactive). Moreover, the GI50 is > 100 µM (inactive) with SF-268, > 100 µM (inactive) with SNB-75, > 100 µM (inactive) in the assay on U-251 and 64 µM (inactive) with UO-31.
On to `CCOC(=O)/C([O-])=C(\C(=O)OCC)[n+]1c(C)n(C)c2ccccc21`, for which the GI50 with A549, in the assay on CAKI-1, in the assay with HCT-116, in the assay with HL-60, with HT-29 and in the assay with IGROV-1 was > 100 µM (inactive) each time. Also, the GI50 in the assay on M14, in the assay with NCI-H522, in the assay on OVCAR-3, in the assay on RXF 393, with SF-268 and in the assay with SF-539 was > 100 µM (inactive) in each case. Also, the GI50 with SK-OV-3, in the assay with SNB-75, with U-251, in the assay on UACC-62 and in the assay on UO-31 was > 100 µM (inactive) each time.
Take `Cc1ccc(SSCCCS(=O)O)cc1`: the GI50 in the assay with A549 is 31.9 µM (inactive); with CAKI-1, 38.7 µM (inactive); in the assay with HCT-116, 30.1 µM (inactive); with HL-60, 0.435 µM (active); in the assay on HT-29, 41.6 µM (inactive); in the assay on IGROV-1, 7.93 µM (inactive). The GI50 in the assay on M14 is 38.6 µM (inactive); with NCI-H522 it was 18.1 µM (inactive); in the assay with OVCAR-3, 47 µM (inactive); in the assay with RXF 393, 18.8 µM (inactive); with SF-268 it was 12.2 µM (inactive); in the assay with SF-539 it was 20.7 µM (inactive). The GI50 with SK-OV-3 is 49.2 µM (inactive); with SNB-75, 21.8 µM (inactive); in the assay on U-251 it was 17.4 µM (inactive); with UACC-62 it was 27.2 µM (inactive); in the assay on UO-31, 23.5 µM (inactive).
